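GI50: concentration for 50% inhibition of growth. TGI is the concentration that stops growth completely.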
Key:
Test in all cases: inhibition of tumour cell growth, NCI panel, 384-well format
[1] = tested on: CCRF-CEM leukemia
[2] = tested on: NCI-H322M lung
[3] = tested on: RXF 393 renal
[4] = tested on: HCT-15 colon
[5] = tested on: HCC-2998 colon
[6] = tested on: ACHN renal
[7] = tested on: RPMI-8226 leukemia
[8] = tested on: T-47D breast
[9] = tested on: MOLT-4 leukemia
[10] = tested on: M14 melanoma
[11] = tested on: BT-549 breast
[12] = tested on: OVCAR-3 ovarian
[13] = tested on: PC-3 prostate

`COCCOc1cnc2ccn([C@H](C)c3nnc4c(F)cc(-c5cnn(C)c5)cn34)c(=O)c2c1` was tested, and the GI50 [1] was > 100 µM, the TGI [1] was > 100 µM and the GI50 [2] was > 100 µM. For the same compound, the TGI [2] was > 100 µM, the GI50 [3] was > 100 µM and the TGI [3] was > 100 µM. The GI50 [4] was > 100 µM, the TGI [4] was > 100 µM and the GI50 [5] was > 100 µM. The TGI [5] was > 100 µM, the GI50 [6] was > 100 µM and the TGI [6] was > 100 µM. For the same compound, the GI50 [7] was > 100 µM, the TGI [7] was > 100 µM and the GI50 [8] was > 100 µM. The TGI [8] was > 100 µM, the GI50 [9] was > 94 µM and the TGI [9] was > 100 µM. For the same compound, the GI50 [10] was > 100 µM, the TGI [10] was > 100 µM and the GI50 [11] was > 100 µM. For the same compound, the TGI [11] was > 100 µM, the GI50 [12] was > 100 µM and the TGI [12] was > 100 µM. The GI50 [13] was > 100 µM and the TGI [13] was > 100 µM.

— PubChem BioAssay (NCI)
